# Literature values, collected in CN105130966A, “炔基化合物及其使用方法和用途” (Add And Open Up Scientific Co, priority 2014, dated 2015).
# Assays:
# [1] = tested on: any protein kinase tested (试验的任何蛋白激酶); conditions: Cell, 2006, 125, 733-747
# PI3Kδ = PI3Kδ (Mus musculus, UniProt O35904); conditions: ovalbumin-induced airway inflammation; FASEB, 2006, 20, 455-465
# Chain of PI3Kδ (O35904 whole entry): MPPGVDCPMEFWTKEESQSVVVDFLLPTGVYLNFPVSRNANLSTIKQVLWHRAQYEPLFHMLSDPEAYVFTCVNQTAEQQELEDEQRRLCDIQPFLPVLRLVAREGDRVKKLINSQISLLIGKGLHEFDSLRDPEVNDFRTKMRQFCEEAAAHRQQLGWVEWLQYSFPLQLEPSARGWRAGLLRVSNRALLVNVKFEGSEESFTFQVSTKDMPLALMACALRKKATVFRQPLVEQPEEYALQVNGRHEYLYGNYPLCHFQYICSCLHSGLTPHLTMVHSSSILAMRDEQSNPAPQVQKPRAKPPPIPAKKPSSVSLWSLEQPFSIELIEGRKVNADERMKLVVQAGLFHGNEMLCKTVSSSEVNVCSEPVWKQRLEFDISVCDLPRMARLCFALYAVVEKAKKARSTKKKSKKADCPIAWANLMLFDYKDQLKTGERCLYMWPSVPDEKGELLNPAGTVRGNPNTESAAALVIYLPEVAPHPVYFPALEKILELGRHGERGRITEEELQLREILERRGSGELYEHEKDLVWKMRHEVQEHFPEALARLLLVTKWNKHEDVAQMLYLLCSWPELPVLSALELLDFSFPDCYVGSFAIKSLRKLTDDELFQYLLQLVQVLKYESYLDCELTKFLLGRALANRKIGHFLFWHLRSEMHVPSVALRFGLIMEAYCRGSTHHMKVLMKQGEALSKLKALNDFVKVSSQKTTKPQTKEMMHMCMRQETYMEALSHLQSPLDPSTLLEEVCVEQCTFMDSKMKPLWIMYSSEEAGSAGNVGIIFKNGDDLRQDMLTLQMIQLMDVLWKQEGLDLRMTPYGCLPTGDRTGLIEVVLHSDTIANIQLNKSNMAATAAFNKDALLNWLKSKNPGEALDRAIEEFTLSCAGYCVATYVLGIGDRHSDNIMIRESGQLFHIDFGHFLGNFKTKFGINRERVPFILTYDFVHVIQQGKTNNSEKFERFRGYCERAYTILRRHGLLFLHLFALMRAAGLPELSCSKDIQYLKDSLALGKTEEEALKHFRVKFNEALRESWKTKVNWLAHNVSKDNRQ
# Chain of PI3Kδ (P26450 whole entry partner): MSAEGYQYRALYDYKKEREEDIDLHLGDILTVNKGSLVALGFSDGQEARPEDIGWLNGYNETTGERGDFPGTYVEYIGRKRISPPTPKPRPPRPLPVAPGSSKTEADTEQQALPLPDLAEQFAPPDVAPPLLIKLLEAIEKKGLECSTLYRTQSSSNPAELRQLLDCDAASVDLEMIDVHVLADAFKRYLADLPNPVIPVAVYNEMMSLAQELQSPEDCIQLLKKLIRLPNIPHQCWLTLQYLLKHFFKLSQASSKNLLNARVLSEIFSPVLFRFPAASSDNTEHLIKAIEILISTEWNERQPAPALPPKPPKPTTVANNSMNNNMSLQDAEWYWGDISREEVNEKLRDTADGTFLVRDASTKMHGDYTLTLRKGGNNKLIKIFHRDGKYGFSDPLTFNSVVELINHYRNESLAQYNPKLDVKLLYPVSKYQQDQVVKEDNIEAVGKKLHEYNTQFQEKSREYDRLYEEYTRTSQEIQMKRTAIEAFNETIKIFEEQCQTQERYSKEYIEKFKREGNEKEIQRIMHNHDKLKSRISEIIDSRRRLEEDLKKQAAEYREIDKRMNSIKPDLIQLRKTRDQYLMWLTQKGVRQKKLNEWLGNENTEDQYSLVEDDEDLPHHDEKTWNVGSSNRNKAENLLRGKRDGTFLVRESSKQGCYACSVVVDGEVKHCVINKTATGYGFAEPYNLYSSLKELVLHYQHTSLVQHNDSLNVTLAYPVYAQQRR
structure (smiles),measurement,setting,value
Cc1ccccc1-n1c(Cn2cnc3c(N)ncnc32)nc2cccc(C)c2c1=O [IC87114],activity,[1],不显示活性
same,inflammation,PI3Kδ,显著改善炎症
